Entries after “also recorded” stand apart in the source; their conditions may differ. Read-outs that look alike come from different tables or passages of the source.
Experiments:
VLA-4 (a4b1) = VLA-4 (a4b1) (Homo sapiens (Human), UniProt P05556+P13612); assay: sVCAM flow cytometry cell-based assay (inhibition of soluble VCAM-1 binding to G2 ALL cells);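 also: compounds at 0.1 to 1000 nM preincubated 30 min with G2 ALL cells, then VCAM/Fc added for 30 min, bound VCAM-1 detected by PE secondary antibody, percent binding cells by flow cytometry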
VLA-4 (a4b1), sequence (P13612 34-1032): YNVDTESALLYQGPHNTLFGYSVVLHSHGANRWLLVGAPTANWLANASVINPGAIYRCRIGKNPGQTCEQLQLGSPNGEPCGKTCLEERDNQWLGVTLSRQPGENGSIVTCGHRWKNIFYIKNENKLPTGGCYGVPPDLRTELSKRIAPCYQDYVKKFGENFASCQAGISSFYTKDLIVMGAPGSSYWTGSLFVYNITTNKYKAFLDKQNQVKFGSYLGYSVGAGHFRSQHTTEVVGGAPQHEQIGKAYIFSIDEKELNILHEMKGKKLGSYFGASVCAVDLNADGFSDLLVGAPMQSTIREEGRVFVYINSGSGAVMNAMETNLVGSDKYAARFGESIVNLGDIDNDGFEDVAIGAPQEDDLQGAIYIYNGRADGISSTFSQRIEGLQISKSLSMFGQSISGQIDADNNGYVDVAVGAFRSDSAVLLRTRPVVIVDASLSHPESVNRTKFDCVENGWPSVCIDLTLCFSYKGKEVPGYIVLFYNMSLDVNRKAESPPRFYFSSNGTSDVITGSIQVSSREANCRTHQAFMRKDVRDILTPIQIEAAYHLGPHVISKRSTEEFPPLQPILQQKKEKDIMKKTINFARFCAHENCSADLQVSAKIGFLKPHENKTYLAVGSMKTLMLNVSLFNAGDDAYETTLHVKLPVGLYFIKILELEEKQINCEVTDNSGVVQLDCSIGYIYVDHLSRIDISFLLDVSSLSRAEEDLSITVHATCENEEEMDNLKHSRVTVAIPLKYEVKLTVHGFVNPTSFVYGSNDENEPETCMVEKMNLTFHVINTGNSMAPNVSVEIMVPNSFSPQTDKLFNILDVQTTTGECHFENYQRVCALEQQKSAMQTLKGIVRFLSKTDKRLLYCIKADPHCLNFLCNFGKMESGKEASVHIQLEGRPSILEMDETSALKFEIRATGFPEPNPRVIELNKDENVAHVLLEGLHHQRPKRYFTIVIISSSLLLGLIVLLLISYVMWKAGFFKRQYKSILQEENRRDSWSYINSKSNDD
VLA-4 (a4b1), sequence (P05556 21-798): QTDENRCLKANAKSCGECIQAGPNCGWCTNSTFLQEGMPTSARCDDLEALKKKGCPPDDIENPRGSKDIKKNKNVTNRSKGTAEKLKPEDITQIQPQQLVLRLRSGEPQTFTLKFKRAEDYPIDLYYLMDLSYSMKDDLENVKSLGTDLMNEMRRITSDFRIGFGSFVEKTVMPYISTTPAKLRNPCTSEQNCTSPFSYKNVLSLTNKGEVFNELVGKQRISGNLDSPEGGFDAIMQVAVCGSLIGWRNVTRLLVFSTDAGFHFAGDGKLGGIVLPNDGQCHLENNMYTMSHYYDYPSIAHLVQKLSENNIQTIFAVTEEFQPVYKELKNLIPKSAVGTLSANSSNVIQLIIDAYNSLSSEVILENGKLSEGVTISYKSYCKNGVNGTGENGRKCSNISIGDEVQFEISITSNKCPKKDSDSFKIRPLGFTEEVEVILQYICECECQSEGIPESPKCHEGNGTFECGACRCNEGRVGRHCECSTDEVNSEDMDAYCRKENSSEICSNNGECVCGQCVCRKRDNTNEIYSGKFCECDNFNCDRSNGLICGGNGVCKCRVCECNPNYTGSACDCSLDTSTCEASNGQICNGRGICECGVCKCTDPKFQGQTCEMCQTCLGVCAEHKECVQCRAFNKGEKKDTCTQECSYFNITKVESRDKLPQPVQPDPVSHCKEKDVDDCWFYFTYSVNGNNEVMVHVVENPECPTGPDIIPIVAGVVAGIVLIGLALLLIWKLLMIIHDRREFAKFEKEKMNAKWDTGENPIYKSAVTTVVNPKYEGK
Protocol: VLA-4 (a4b1) inhibitor compounds were tested for their ability to inhibit the binding of soluble VCAM-1 to human G2 acute lymphoblastic leukemia (ALL) cells. Briefly, G2 ALL cells are pre-incubated with increasing concentrations (0.1 to 1000 nM) of compounds for 30 minutes. Soluble VCAM/Fc chimera protein (R & D systems) is then added to the mixture and the cells incubated for an additional 30 minutes. Afterwards, cells are washed and VCAM-1 is detected using a PE-conjugated secondary polyclonal antibody. In each experiment, an aliquot of cells are stained with isotype control antibodies to serve as a negative control. The percentage of VCAM-1 binding cells was then determined by flow cytometry.

[1] = test system: hematopoietic stem/progenitor cells (HSPCs); assay: HSPC mobilization into peripheral blood, colony forming unit (CFU) assay; as to HSPC mobilization, result in words: test concentration or dose not given here; as to No. CFU (×10^3)/mL ± SD, 6 hr: test concentration or dose not given here; settings: mice; for No. CFU (×10^3)/mL ± SD, 2 hr / No. CFU (×10^3)/mL ± SD, 4 hr / No. CFU (×10^3)/mL ± SD, 6 hr / No. CFU (x10^3)/mL ± SD, 2 hr / No. CFU (x10^3)/mL ± SD, 4 hr / No. CFU (x10^3)/mL ± SD, 6 hr / No. CFU (x10^3)/mL ± SD, 24 hr / No. CFU (×10^3)/mL ± SD, 0.25 hr: peripheral blood; for No. CFU (x10^3)/mL ± SD, 2 hr: 2 hr post dose (TABLE 11); for No. CFU (x10^3)/mL ± SD, 4 hr: 4 hr post dose (TABLE 11); for No. CFU (x10^3)/mL ± SD, 6 hr: 6 hr post dose (TABLE 11); for No. CFU (x10^3)/mL ± SD, 24 hr: 24 hr post dose (TABLE 11)
[2] = as listed in TABLE 9, read-out: sVCAM IC50
[3] = as listed in TABLE 11, read-out: sVCAM IC50
[4] = inhibition of sVCAM-1 binding to human G2 ALL cells (TABLE 3), read-out: SVCAM-1, IC50
[5] = single dose, 2 hr post dose (TABLE 9)
[6] = single dose, 4 hr post dose (TABLE 9)
[7] = single dose, 6 hr post dose (TABLE 9)
[8] = as listed in TABLE 6, read-out: sVCAM IC50
[9] = single s.c. injection, 0.25 hr post dose (TABLE 6)
[10] = single s.c. injection, 2 hr post dose (TABLE 6)
[11] = single s.c. injection, 4 hr post dose (TABLE 6)

Row | SMILES | IC50 (VLA-4 (a4b1); [2]) [nM] | IC50 (VLA-4 (a4b1); [3]) [nM] | IC50 (VLA-4 (a4b1); [4]) [nM] | IC50 (VLA-4 (a4b1); [8]) [nM] | HSPC mobilization, result in words ([1]; single dose) | No. CFU (×10^3)/mL ± SD, 2 hr [1, 5] | No. CFU (x10^3)/mL ± SD, 2 hr ([1]; single dose) | No. CFU (×10^3)/mL ± SD, 4 hr [1, 6] | No. CFU (x10^3)/mL ± SD, 4 hr ([1]; single dose) | No. CFU (×10^3)/mL ± SD, 6 hr [1, 7] | No. CFU (x10^3)/mL ± SD, 6 hr ([1]; single dose) | No. CFU (x10^3)/mL ± SD, 24 hr ([1]; single dose) | No. CFU (×10^3)/mL ± SD, 0.25 hr [1, 9] | No. CFU (×10^3)/mL ± SD, 2 hr [1, 10] | No. CFU (×10^3)/mL ± SD, 4 hr [1, 11] | further results
1 | COCCOCCOCCOCCOCCOCCOCCOCCOCc1cc(OC)c(-c2ccc(C[C@H](NC(=O)[C@@H]3CCCN3S(=O)(=O)c3cc(Cl)cc(Cl)c3)C(=O)O)cc2)c(OC)c1 [Example C12, (2S)-2-[[(2S)-1-(3,5-dichlorophenyl)sulfonylpyrrolidine-2-carbonyl]amino]-3-[4-[2,6-dimethoxy-4-[2-[2-[2-[2-[2-[2-[2-(2-methoxyethoxy)ethoxy]ethoxy]ethoxy]ethoxy]ethoxy]ethoxy]ethoxymethyl]phenyl]phenyl]propanoic Acid] | 0.573 | 0.573 | 0.573 |  | returning to baseline by 4 hours and clearly at baseline by 6 hours; also recorded: do not provide the same extended mobilization as the 24 PEG unit analogues | 2.42 ± 1.06 (×10^3)/mL | 0.78 ± 0.17 (x10^3)/mL | 1.19 ± 0.53 (×10^3)/mL | 0.58 ± 0.19 (x10^3)/mL | 0.24 ± 0.15 (×10^3)/mL | 0.22 ± 0.10 (x10^3)/mL | 0.14 ± 0.07 (x10^3)/mL |  |  |  | IC50 (VLA-4 (a4b1); as listed in TABLE 17, read-out: sVCAM IC50): 0.573 nM; time to which HSPC mobilization is extended after a single dose [1]: ≤ 2 h; No. CFU (×10^3)/mL ± SD, 2 hr ([1]; alone or in combination with Plerixafor and tGroβ, 2 hr (TABLE 17)): 4.02 ± 1.99 (×10^3)/mL; No. CFU (×10^3)/mL ± SD, 4 hr ([1]; alone or in combination with Plerixafor and tGroβ, 4 hr (TABLE 17)): 0.90 ± 0.61 (×10^3)/mL; No. CFU (×10^3)/mL ± SD, 6 hr ([1]; alone or in combination with Plerixafor and tGroβ, 6 hr (TABLE 17)): 0.25 ± 0.08 (×10^3)/mL
2 | CCOCc1cc(OC)c(-c2ccc(C[C@H](NC(=O)[C@@H]3CCCN3S(=O)(=O)c3cc(Cl)cc(Cl)c3)C(=O)O)cc2)c(OC)c1 [Example C6] |  |  | 0.445 | 0.445 |  |  |  |  |  |  |  |  | 2.58 ± 0.65 (×10^3)/mL | 2.12 ± 0.70 (×10^3)/mL | 0.46 ± 0.20 (×10^3)/mL | 
3 | CCOCc1cc(OC)c(-c2ccc(C[C@H](NC(=O)c3c(Cl)cc(C(=O)O)cc3Cl)C(=O)O)cc2)c(OC)c1 [Example C3] |  |  | 1.35 |  |  |  |  |  |  |  |  |  |  |  |  | IC50 (VLA-4 (a4b1); as listed in TABLE 5, read-out: sVCAM IC50): 1.35 nM; No. CFU (×10^3)/mL ± SD, 0.25 hr ([1]; single s.c. injection, 0.25 hr post dose (TABLE 5)): 3.69 ± 0.52 (×10^3)/mL; No. CFU (×10^3)/mL ± SD, 2 hr ([1]; single s.c. injection, 2 hr post dose (TABLE 5)): 1.58 ± 0.74 (×10^3)/mL; No. CFU (×10^3)/mL ± SD, 4 hr ([1]; single s.c. injection, 4 hr post dose (TABLE 5)): 0.30 ± 0.11 (×10^3)/mL
4 | O=C(O)[C@H](Cc1ccc(OC(=O)N2CCCC2)cc1)NC(=O)[C@@H]1CCCN1S(=O)(=O)c1ccccc1 [BOP, (N-benzenesulfonyl)-L-prolyl-L-O-(1-pyrrolidinylcarbonyl)tyrosine] |  |  | 47.1 |  | rapid but transient mobilization of HSPCs but are returning to baseline by 2 hours |  |  |  |  |  |  |  |  |  |  | IC50 (VLA-4 (a4b1); as listed in TABLE 13, for the VLA-4 inhibitor alone, read-out: sVCAM IC50): 47 nM

Compounds with a lower IC50 (VLA-4 (a4b1); [4]), results first:

Row | IC50 (VLA-4 (a4b1); [2]) [nM] | IC50 (VLA-4 (a4b1); [3]) [nM] | IC50 (VLA-4 (a4b1); [4]) [nM] | IC50 (VLA-4 (a4b1); [8]) [nM] | SMILES | HSPC mobilization, result in words ([1]; single dose) | No. CFU (×10^3)/mL ± SD, 2 hr [1, 5] | No. CFU (x10^3)/mL ± SD, 2 hr ([1]; single dose) | No. CFU (×10^3)/mL ± SD, 4 hr [1, 6] | No. CFU (x10^3)/mL ± SD, 4 hr ([1]; single dose) | No. CFU (×10^3)/mL ± SD, 6 hr [1, 7] | No. CFU (x10^3)/mL ± SD, 6 hr ([1]; single dose) | No. CFU (x10^3)/mL ± SD, 24 hr ([1]; single dose) | No. CFU (×10^3)/mL ± SD, 0.25 hr [1, 9] | No. CFU (×10^3)/mL ± SD, 2 hr [1, 10] | No. CFU (×10^3)/mL ± SD, 4 hr [1, 11] | further results
5 | 0.194 |  | 0.194 | 0.194 | COCCOCCOCCOCc1cc(OC)c(-c2ccc(C[C@H](NC(=O)[C@@H]3CCCN3S(=O)(=O)c3cc(Cl)cc(Cl)c3)C(=O)O)cc2)c(OC)c1 [Example C7] | returning to baseline by 4 hours and clearly at baseline by 6 hours | 2.65 ± 1.39 (×10^3)/mL |  | 0.44 ± 0.17 (×10^3)/mL |  | 0.11 ± 0.08 (×10^3)/mL |  |  | 2.57 ± 0.62 (×10^3)/mL | 2.52 ± 0.37 (×10^3)/mL | 0.50 ± 0.18 (×10^3)/mL | 
6 |  | 0.155 | 0.155 |  | COCCOCCOCCOCCOCCOCCOCCOCCSCc1cc(OC)c(-c2ccc(C[C@H](NC(=O)[C@@H]3CCCN3S(=O)(=O)c3cc(Cl)cc(Cl)c3)C(=O)O)cc2)c(OC)c1 [Example C16] |  |  | 2.34 ± 0.55 (x10^3)/mL |  | 1.14 ± 0.86 (x10^3)/mL |  | 0.38 ± 0.24 (x10^3)/mL | 0.14 ± 0.06 (x10^3)/mL |  |  |  | 

Source: US20250381168A1, “VLA4 INHIBITORS AND USES THEREOF” (Washington University, priority 2022, published 2025)
